Measurements taken from patent publication US11266626B2, “Reduction of ER-MAM-localized APP-C99 and methods of treating alzheimer's disease” (THE TRUSTEES OF COLUMBIA UNIVERSITY IN THE CITY OF NEW YORK, priority 2015, dated 2022).
“Also recorded” adds a separate entry of the source.

Columns and labels:
[1] = tested on: SH-SY5Y cells; experiment: Staining of lipid droplets with LipidTox Green; format: cell-based, human; details: DAPT 10 μM alone or with BI 100 nM
[2] = tested on: HeLa cells; experiment: Staining of lipid droplets with LipidTox Green; format: cell-based, human; details: DAPT 10 μM alone or with BI 100 nM
Method: (§1) Staining of lipid droplets was performed using HCS LipidTox™ Deep Green neutral lipid stain (Invitrogen H34475) according to the manufacturer's instructions. Lipid droplet staining was quantified using ImageJ. The different values represent the product of the intensity and the area covered by the fluorescent signal above background in every cell examined.

[3] = tested on: fibroblasts from AD patients; experiment: Staining of lipid droplets with LipidTox Green; format: cell-based, human; details: 100 nM BI
Method: as §1, with “Quantification of total cholesterol and cholesteryl esters was performed using the Cholesterol/Cholesteryl Ester Quantitation kit from Calbiochem (428901). Staining of lipid droplets Staining” for “Staining”
as §1

[4] = tested on: PS-DKO cells; experiment: Lipidomic analyses of membranes; format: cell-based, mouse; details: for ceramide levels / sphingomyelin levels: PS-DKO cells, BI 100 nM or myriocin 5 μM
Method: (§2) Lipid extracts were prepared via chloroform-methanol extraction, spiked with appropriate internal standards, and analyzed using a 6490 Triple Quadrupole LC/MS system (Agilent Technologies, Santa Clara, Calif.) as described previously (6, 7). Glycerophospholipids and sphingolipids were separated with normal-phase HPLC using an Agilent Zorbax Rx-Sil column (inner diameter 2.1×100 mm) under the following conditions: mobile phase A (chloroform:methanol:1 M ammonium hydroxide, 89.9:10:0.1, v/v) and mobile phase B (chloroform:methanol:water:ammonium hydroxide, 55:39.9:5:0.1, v/v); 95% A for 2 min, linear gradient to 30% A over 18 min and held for 3 min, and linear gradient to 95% A over 2 min and held for 6 min. Quantification of lipid species was accomplished using multiple reaction monitoring (MRM) transitions that were developed in earlier studies (6) in conjunction with referencing of appropriate internal standards: ceramide d18:1/17:0 and sphingomyelin d18:1/12:0 (Avanti Polar Lipids, Alabaster, Ala.).
as §2, with “Lipids were extracted from equal amounts of material (30 μg protein/sample). Lipid extracts” for “Lipid extracts”, “described previously (Chan et al., 2012). Glycerophospholipids and” for “described previously (6, 7). Glycerophospholipids and”, “hydroxide, 89.9:10:0.1, v/v/v) and mobile” for “hydroxide, 89.9:10:0.1, v/v) and mobile”, “hydroxide, 55:39.9:5:0.1, v/v/v); 95% A” for “hydroxide, 55:39.9:5:0.1, v/v); 95% A”, “earlier studies (Chan et al., 2012) in conjunction” for “earlier studies (6) in conjunction”, “Alabaster, Ala.). Values are represented as mole fraction with respect to total lipid (% molarity)” for “Alabaster, Ala.).”
Lipids were extracted from equal amounts of material (30 μg protein/sample). Lipid extracts were prepared via chloroform-methanol extraction, spiked with appropriate internal standards, and analyzed using a 6490 Triple Quadrupole LC/MS system (Agilent Technologies, Santa Clara, Calif.) as described previously (Chan et al, 2012). Glycerophospholipids and sphingolipids were separated with normal-phase HPLC using an Agilent Zorbax Rx-Sil column (inner diameter 2.1×100 mm) under the following conditions: mobile phase A (chloroform:methanol:1 M ammonium hydroxide, 89.9:10:0.1, v/v/v) and mobile phase B (chloroform:methanol:water:ammonium hydroxide, 55:39.9:5:0.1, v/v/v/v); 95% A for 2 min, linear gradient to 30% A over 18 min and held for 3 min, and linear gradient to 95% A over 2 min and held for 6 min. Quantification of lipid species was accomplished using multiple reaction monitoring (MRM) transitions that were developed in earlier studies (Chan et al, 2012) in conjunction with referencing of appropriate internal standards: ceramide d18:1/17:0 and sphingomyelin d18:1/12:0 (Avanti Polar Lipids, Alabaster, Ala., USA). Values are represented as mole fraction with respect to total lipid (% molarity). For this, lipid mass (in moles) of any specific lipid is normalized by the total mass (in moles) of all the lipids measured (Chan et al, 2012). In addition, all of our results were further normalized by protein content.

[5] = tested on: PS-DKO cells; experiment: Analysis of ER-mitochondrial apposition (colocalization of ER and mitochondrial markers); format: cell-based, mouse; details: 100 nM BI, 12-16 h
Method: Interactions between mitochondria and ER were performed as described (5).
Cells under were co-transfected with GFP-Sec61-β (Addgene plasmid #15108) and DsRed-Mito (Clontech, #632421) at a 1:1 ratio, using Lipofectamine 2000 (Invitrogen, #11668-027) in serum-free DMEM. Twelve hours post-transfection, cells were analyzed as described (8).
Cells under were co-transfected with GFP-Sec61-β (Addgene plasmid #15108) and DsRed2-Mito (Clontech, #632421) at a 1:1 ratio, using Lipofectamine 2000 (Invitrogen, #11668-027) in serum-free DMEM. Twelve hours post-transfection, cells were analyzed as described (Guardia-Laguarta et al., 2014).
Cells under were co-transfected with GFP-Sec61-β (Addgene plasmid #15108) and DsRed2-Mito (Clontech, #632421) at a 1:1 ratio, using Lipofectamine 2000 (Invitrogen, #11668-027) in serum-free DMEM. Twelve hours post-transfection, cells were analyzed as described (Guardia-Laguarta et al, 2014).

Compound | accumulation of lipid droplets (LDs) [1] | accumulation of lipid droplets (LDs) [2] | number of lipid droplets (LDs) [3] | ceramide levels [4] | sphingomyelin levels [4] | ceramide levels ([4]; listed as BACE1 inhibitor) | sphingomyelin levels ([4]; listed as BACE1 inhibitor) | PtdSer content of membranes ([4]; PS-DKO membranes, BI) | degree of ER-mitochondrial co-localization (apposition) [5]
C[C@H](NC(=O)Cc1cc(F)cc(F)c1)C(=O)N[C@H](C(=O)OC(C)(C)C)c1ccccc1 [DAPT] | LDs also accumulated; also recorded: Lipid droplets also accumulated | LDs also accumulated; also recorded: Lipid droplets also accumulated | – | – | – | – | – | – | –
C[C@@H](NC(=O)c1cc(C(=O)N[C@@H](Cc2ccccc2)[C@H](O)CNC2CC2)cc(N(C)S(C)(=O)=O)c1)c1ccccc1 [BI, β-secretase inhibitor IV] | – | – | reduced the number of LDs | reversing the alterations in both sphingomyelin (FIG. 46E) and ceramide | reversing the alterations in both sphingomyelin | completely reversed the changes in SM and Cer levels | completely reversed the changes in SM and Cer levels | reduced the PtdSer content of PS-DKO membranes to control levels | reduced the degree of ER-mitochondrial co-localization significantly; also recorded: rescued the upregulation of ER-mitochondria apposition
